From the Deep4Chem optical property database
One block for each molecule: values may come before it.

Assay: solvent given as SMILES
[1] = in O=P(c1ccccc1)(c1ccccc1)c1ccccc1Oc1ccccc1P(=O)(c1ccccc1)c1ccccc1

Compound: Cc1cc(C)c(B(c2c(C)cc(C)cc2C)c2c(C)cc(-n3c4ccc(N(c5ccccc5)c5ccccc5)cc4c4cc(N(c5ccccc5)c5ccccc5)ccc43)cc2C)c(C)c1
emission maximum (in Cc1ccccc1): 495 nm | emission maximum [1]: 487 nm

Compound: O=Cc1cc(O)ccc1O
emission maximum (in CC(C)=O): 423 nm | emission maximum (in CCCO): 484 nm | emission maximum (in CCO): 487 nm | emission maximum (in CN(C)C=O): 440 nm | emission maximum (in CN(C)P(=O)(N(C)C)N(C)C): 438 nm | emission maximum (in CNC=O): 479 nm | emission maximum (in CS(C)=O): 446 nm | emission maximum (in NC=O): 490 nm

Compound: CC(C)(C)c1ccc2c(c1)c1cc(C(C)(C)C)ccc1n2-c1cccc(-c2nc(-c3cccc(P(=O)(c4ccccc4)c4ccccc4)c3)nc(-c3cccc(P(=O)(c4ccccc4)c4ccccc4)c3)n2)c1
emission maximum (in C1CCOC1): 511.91 nm | emission maximum (in CC#N): 581.72 nm | emission maximum (in CC(C)=O): 554.6 nm | emission maximum (in CN(C)C=O): 567.81 nm | emission maximum (in Cc1ccccc1): 480.78 nm | emission maximum (in ClC(Cl)Cl): 512.5 nm | emission maximum (in ClCCl): 535.02 nm | emission maximum [1]: 484 nm

Compound: Cc1cc(C)c2nc3c(=O)[nH]c(=O)[nH]c3nc2c1
emission maximum (in CC#N): 461 nm

Compound: Cc1cn(CCCn2cc(C)c(=O)[nH]c2=O)c(=O)nc1-n1cncn1
emission maximum (in O): 382 nm

Compound: CC(C)(C)c1cc(-c2ccc(-c3cc(C(C)(C)C)cc(C(C)(C)C)c3)cc2)cc(C(C)(C)C)c1
emission maximum (in C1COCCO1): 349 nm

Compound: CCOC(=O)CN1C(=O)C2=C(c3ccc(N4CCCCC4)cc3)N(CC(=O)OCC)C(=O)C2=C1c1ccccc1
emission maximum (in CC#N): 587 nm | emission maximum (in CS(C)=O): 601 nm | emission maximum (in Cc1ccccc1): 563 nm

Compound: CCCCCCCCN1c2ccccc2Sc2cc(/C=C/c3ccc(N(c4ccc(/C=C/c5ccc6c(c5)Sc5ccccc5N6CCCCCCCC)cc4)c4ccc(/C=C/c5ccc(/C=C/c6ccc(N(c7ccc(/C=C/c8ccc(N(c9ccccc9)c9ccccc9)cc8)cc7)c7ccc(/C=C/c8ccc(N(c9ccccc9)c9ccccc9)cc8)cc7)cc6)c6nsnc56)cc4)cc3)ccc21
emission maximum (in C1CCOC1): 653 nm | emission maximum (in CCOC(C)=O): 646 nm | emission maximum (in CN(C)C=O): 749 nm | emission maximum (in Cc1ccccc1): 620 nm | emission maximum (in ClC(Cl)Cl): 668 nm | emission maximum (in ClCCl): 708 nm

Compound: CC(C)(C)c1ccc2c(c1)c1cc(C(C)(C)C)ccc1n2-c1ccc(-c2nc(-c3ccc(-n4c5ccc(C(C)(C)C)cc5c5cc(C(C)(C)C)ccc54)cc3)nc(-c3ccc(P(=O)(c4ccccc4)c4ccccc4)cc3)n2)cc1
emission maximum (in C1CCOC1): 501.73 nm | emission maximum (in CC#N): 543.52 nm | emission maximum (in CC(C)=O): 525.92 nm | emission maximum (in CN(C)C=O): 574.19 nm | emission maximum (in Cc1ccccc1): 474.19 nm | emission maximum (in ClCCl): 526.57 nm | emission maximum [1]: 492 nm

Compound: O=C([O-])c1ccc(C2=c3cc4c5c(c3Oc3c2cc2c6c3CCCN6CCC2)CCC[N+]=5CCC4)c(C(=O)[O-])c1
emission maximum (in CCO): 601 nm | emission maximum (in O): 603 nm

Other lines, results leading:

emission maximum (in ClCCl): 571 nm
Compound: CC1=C(Br)C(C)=[N+]2C1=C(c1c(-c3ccccn3)nc3ccccn13)c1c(C)c(Br)c(C)n1[B-]2(F)F

emission maximum (in C1CCCCC1): 420 nm
Compound: Cc1cc(C)c(B2c3cc(C(C)(C)C)ccc3-c3cc4ccccc4c4cc(C(C)(C)C)cc2c34)c(C)c1

emission maximum (in C1CCOC1): 782 nm | emission maximum (in CN(C)C=O): 788 nm | emission maximum (in ClCCl): 785 nm | emission maximum (in c1ccccc1): 785 nm
Compound: F[B-]1(F)n2c(c3cc4ccccc4cc3c2-c2ccccc2)C=C2c3cc4ccccc4cc3C(c3ccccc3)=[N+]21

emission maximum (in C1CCOC1): 338 nm
Compound: F[Si-](F)(c1ccccc1)(c1ccccc1)c1cccc2ccccc12

emission maximum (in ClC(Cl)Cl): 455 nm
Compound: CSc1ccc(C#Cc2ccc(C#Cc3ccc(C#Cc4ccccc4C#N)cc3C#N)cc2C#N)cc1

emission maximum (in ClCCl): 474 nm
Compound: COc1ccc(C#Cc2nc3ccccc3nc2-c2ccn(-c3ccccc3)c2)cc1
